Results: patent US20190064149A1, “CANCER EXAMINATION METHOD AND EXAMINATION KIT” (THE UNIVERSITY OF TOKYO, priority 2013, published 2019)

Target: T1, MT1-MMP (Homo sapiens, UniProt P50281)
T1 construct: expressed in transfected cells; host or cells: HT1080 (human fibrosarcoma) stably expressing c-myc-EphA2, transiently transfected with pSG-MT1-MMP
Assay: EphA2 processing by MT1-MMP in HT1080 cells forcibly expressing MT1-MMP and Myc-labeled EphA2, western blotting
Type: cell-based
Protocol: HT1080 cells expressing c-myc-EphA2 stably were prepared by a ViraPower™ lentiviral expression system using a plenti-c-myc-EphA2 vector in HT1080 and expression vectors (pSG-MT1-6-MMPs) of MT1-6-MMPs were transiently introduced into the resulting cells. EphA2 and MT1-MMP were detected by western blotting using an anti-Myc polyclonal antibody and an anti-MT1-MMP monoclonal antibody. Respective expression vectors of the MT-MMPs were introduced using FuGene6 (Rhoche). Expression of c-myc-EphA2 and wild type MT1-MMP was confirmed by solubilizing each of the cells (10 cm) by RIPA and then performing immunoprecipitation (IP) of EphA2 and stud thereof by an anti C-myc antibody. In order to inhibit the protease activity of MT1-MMP, BB94 or TIMP-2 was added as an MMP inhibitor to a culture solution.

EphA2 species purified by immunoprecipitation with Myc antibody (HT1080 cells co-expressing Myc-EphA2 and wild type MT1-MMP): only a full length type EphA2 | production of 65 and 60 kDa EphA2 processed fragments (HT1080 cells forcibly expressing MT1-MMP, inhibitor added to culture solution): suppressed
Compound: CNC(=O)[C@H](Cc1ccccc1)NC(=O)[C@H](CC(C)C)[C@H](CSc1cccs1)C(=O)NO [BB94]
